Columns and labels:
[1] = system: Helicobacter pylori; details: In China; cited from earlier work
[2] = human, in vivo
Procedure: The 40 patients were randomly allocated to four groups at a ratio of 1:1:1:1. […] The detection linear range was as below: • Compound I: Lower Limit Of Quantitation (LLOQ): 1.00 ng/mL; Upper Limit Of Quantitation (ULOQ): 1,000 ng/mL • Rabeprazole sodium: LLOQ: 2.00 ng/mL; […] […] Pharmacokinetics Evaluation Plasma drug concentrations of various groups at different time points were determined, including: arithmetic mean, standard deviation, minimum, median, maximum, geometric mean, coefficient of variation, and coefficient of geometric variation. The pharmacokinetic parameters calculated from the first and last administration were descriptively analyzed according to various trial groups, including: arithmetic mean, standard deviation, minimum value, median, maximum value, geometric mean, coefficient of variation, geometric coefficient of variation, etc. In addition, the accumulation index AUC0-tau, ss(D15)/AUC0-tau (D1) was calculated. […]

Compound | Resistance rate of Helicobacter pylori [1] | Effect of amoxicillin on the major pharmacokinetic parameters of rabeprazole [2]
Cc1ncc([N+](=O)[O-])n1CCO [metronidazole] | 40-70% | 
COCCCOc1ccnc(C[S+]([O-])c2nc3ccccc3[n-]2)c1C.[Na+] (centres unmarked) [rabeprazole, rabeprazole sodium, reference compound] |  | no significant effect

Source: US12005050B2, “Methods for preventing or treating H. pylori infection” (TENNOR THERAPEUTICS (SUZHOU) LIMITED, priority 2022, dated 2024)
